Here are results for 1 molecule from patent publication US20250381110A1, “SKIN CARE COMPOSITION AND METHOD OF USING THE SAME” (THE PROCTER & GAMBLE COMPANY, priority 2024, published 2025).

The test system of assay [1] is human dermal fibroblasts (HDFs). The assay is described as follows: EdU incorporation assay. The class given is cell-based. Particulars: HDFs from aged donors; 30 μM, 7 h.
Assay [2] has as its system p21. The experiment in a line: Immunostaining for p21 (percentage of p21-positive cells). The class given is cell-based, human. The protocol: (§1) Immunofluorescence analyses were performed as described previously (Carroll et al.). In brief, cells were seeded on coverslips in 24-well plates and fixed in 4% formaldehyde in PBS for 10 min at room temperature followed by permeabilization in 0.5% Triton X-100 (Sigma-Aldrich) in PBS for 4 min at room temperature (Ki67 and p21) or in methanol for 4 min at −20° C. (LC3 and p62). Cells were then blocked for 1 h in 5% normal goat serum (Sigma-Aldrich) in PBS at room temperature and incubated with primary antibodies overnight at 4° C. Cells were washed three times and incubated with the appropriate secondary antibodies for 1 h at room temperature (Thermo Fisher Scientific, A31556 and A21235, 1:1000). Cells were washed, and coverslips were mounted on slides with Prolong Gold antifade mountant with DAPI (Invitrogen). Fluorescence images were obtained as described above. The following primary antibodies were used: rabbit anti-Ki67 (Abcam, ab 15580, 1:250), rabbit anti-p21 (CST, 2947, 1:1000), mouse anti-LC3 (NanoTools, 0260-100, 1:200) and rabbit anti-p62 (MBL, PM045, 1:500).

For assay [3], the system named is p62-dependent mitophagy. The experiment in a line: Luciferase-p62 clearance assay, stated for HDFs. The class given is cell-based, human. The conditions noted are these: 10 μM; HDFs as printed. On the procedure:
FIGS. 15A-15C show hydroxycinnamic acids (HCAs) tested in mitophagy assays in primary HDFs. […] 80,000 mixed aged Fibroblasts expressing the Su9-Halo-GFP reporter were treated for 48 h with the indicated HCAs. A change in the reporter excitation occurs because the GFP tag is quenched in the lysosome environment, indicating mitophagy.
To identify p62-dependent materials which increase mitophagy, a Luciferase-p62 Assay was established. This method provides an approach to measure the ability of a material to modulate p62-dependent mitophagy by using an inducible firefly luciferase-p62 (Fluc-p62) reporter cell system. In this assay, p62 levels are driven by doxycycline treatment. After levels increased, expression of Fluc-p62 is turned off by removal of doxycycline, materials are then added and assessed for how they affect clearance of Fluc-p62 protein, which is proportionate to cellular mitophagy rates (Kelly et al.). […]
Test materials including bioactive materials were screened in mouse embryonic fibroblasts (MEFs, Harada et al.) expressing the TET-inducible p62-fluc construct as previously described (Brown et al.). […] Subsequently, cells were treated with test materials for 48 hours in normal growth medium and analysed using ONE-Glo™+Tox Luciferase Reporter and Cell Viability Assay (Promega) by following the manufacturer's protocol.

For assay [4], the system named is human dermal fibroblasts (HDFs). The experiment in a line: Average nuclear size by immunofluorescence microscopy. The class given is cell-based. The protocol: as §1
[5] abbreviates: HDFs from aged donors, 30 μM, 7 h.
[6] abbreviates: HDFs, treatment 5 h prior to IR.

Regarding `CC(=O)Oc1ccc(N2C(=O)C3C(Cc4ccccc4)NC4(C(=O)Nc5c4ccc(Cl)c5C)C3C2=O)cc1` (stereo not drawn) [STOCKIN-57543], the “cellular proliferation capacity (EdU incorporation)” value in assay [1] is listed as “restoring cellular proliferation capacity”. For the same molecule, the p21 expression result in assay [2] (setting [5]) is recorded as “decreasing elevated p21 expression”. Besides, the “IR-associated increased p21 expression” value in assay [2] (setting [6]) was “mitigating IR-associated increased p21 expression”. Besides, the “increase p62-dependent mitophagy levels over baseline” value in assay [3] came to 33%. In assay [4] (setting [5]), the nuclear size result is listed as “decreasing a senescence-associated increase in nuclear size”. Moreover, the “IR-associated increase in nuclear size” value in assay [4] (setting [6]) is “mitigating IR-associated increase in nuclear size”.
